Structures can show the parent of a compound that is named as a salt.
Tests used:
Conditions in all cases: 72 h
[1] = system: myeloid leukemia patient primary cells Pat.13; experiment: area under dose-response curve (viability, 1 nM-10 uM) (fraction (0-1)); higher = more sensitive
Method: (§1)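 AUC (0–1, higher = more sensitive) of the 5-point dose–response (1 nM–10 µM, 72 h, CellTiter-Glo) in primary AML/CML patient mononuclear cells. 0.030103 is the floor for inactive compounds.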

[2] = system: myeloid leukemia patient primary cells Pat.8; experiment: as above
Method: as §1

[3] = system: myeloid leukemia patient primary cells Pat.5; experiment: as above
Method: as §1

[4] = system: myeloid leukemia patient primary cells Pat.3; experiment: as above
Method: as §1

[5] = system: myeloid leukemia patient primary cells Pat.9; experiment: as above
Method: as §1

[6] = system: myeloid leukemia patient primary cells Pat.10; experiment: as above
Method: as §1

[7] = system: myeloid leukemia patient primary cells Pat.1; experiment: as above
Method: as §1

[8] = system: myeloid leukemia patient primary cells Pat.15; experiment: as above
Method: as §1

[9] = system: myeloid leukemia patient primary cells Pat.11; experiment: as above
Method: as §1

[10] = system: myeloid leukemia patient primary cells Pat.6; experiment: as above
Method: as §1

[11] = system: myeloid leukemia patient primary cells Pat.7; experiment: as above
Method: as §1

[12] = system: myeloid leukemia patient primary cells Pat.4; experiment: as above
Method: as §1

[13] = system: myeloid leukemia patient primary cells Pat.12; experiment: as above
Method: as §1

[14] = system: myeloid leukemia patient primary cells Pat.14; experiment: as above
Method: as §1

[15] = system: myeloid leukemia patient primary cells Pat.2; experiment: as above
Method: as §1

MV4-11 = experiment: cell viability (% survival relative to DMSO control); higher = less cytotoxic
Method: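 8x8 drug-combination matrices (0–5000 nM; rosiglitazone and lestaurtinib 0–1000 nM) were run in MV4-11 cells for 72 h with CellTiter-Glo read-out. Survival is normalised to DMSO and 10 µM bortezomib and clipped at 100%.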

CN(Cc1cnc2nc(N)nc(N)c2n1)c1ccc(C(=O)N[C@@H](CCC(=O)O)C(=O)O)cc1 [Methotrexate]
Conditions | area under dose-response curve
[1] | < 0.0301
[2] | < 0.0301
[3] | 0.384
[4] | 0.469
[5] | 0.526
[6] | 0.294
[7] | < 0.0301
[8] | < 0.0301
[9] | < 0.0301
[10] | < 0.0301
[11] | 0.399
[12] | < 0.0301
[13] | < 0.0301
[14] | 0.306

CC(=O)Nc1nc(C)c(-c2ccc(Cl)c(S(=O)(=O)NCCO)c2)s1 [PIK93]
Conditions | area under dose-response curve
[1] | 0.214
[2] | 0.0853
[3] | 0.907
[4] | 0.545
[5] | 0.82
[6] | 0.728
[7] | 0.365
[8] | 0.417
[9] | 0.204
[10] | 0.0757
[11] | 0.16
[12] | 0.401
[13] | < 0.0301
[14] | 0.139
[15] | 0.0748

C[C@]12C=CC(=O)C=C1CC[C@@H]1[C@@H]2[C@@H](O)C[C@@]2(C)[C@H]1CC[C@]2(O)C(=O)CO [Prednisolone]
Conditions | area under dose-response curve
[1] | < 0.0301
[2] | 0.0885
[3] | < 0.0301
[4] | 0.227
[5] | < 0.0301
[6] | 0.678
[7] | < 0.0301
[11] | < 0.0301
[13] | < 0.0301
[14] | < 0.0301

C=CCN(C)CCCCCCOc1ccc(C(=O)c2ccc(Br)cc2)c(F)c1.O=C(O)/C=C/C(=O)O [Ro 48-8071 fumarate]
Conditions | area under dose-response curve
[1] | 0.0673
[2] | 0.0337
[3] | 0.146
[4] | 0.576
[5] | 0.13
[6] | 0.146
[7] | 0.109
[8] | < 0.0301
[9] | 0.0457
[10] | 0.0624
[11] | 0.217
[12] | 0.0305
[14] | 0.0802
[15] | 0.0431

CN(CCOc1ccc(Cc2sc(O)nc2O)cc1)c1ccccn1 [Rosiglitazone]
Conditions | area under dose-response curve
[1] | < 0.0301
[2] | < 0.0301
[3] | 0.0995
[4] | 0.0764
[5] | 0.139
[6] | 0.0632
[7] | < 0.0301
[9] | < 0.0301
[10] | < 0.0301
[11] | < 0.0301
[12] | < 0.0301
[13] | < 0.0301
[14] | < 0.0301
[15] | < 0.0301

CN(CCOc1ccc(Cc2sc(O)nc2O)cc1)c1ccccn1 [Rosiglitazone] + CC(C)(Cc1ccccc1)NCC(O)c1ccc(O)c(NS(C)(=O)=O)c1 [Zinterol hydrochloride]
cell viability [%], MV4-11
Conditions | drug1 concentration 1 nM | drug1 concentration 5 nM | drug1 concentration 10 nM | drug1 concentration 50 nM | drug1 concentration 100 nM | drug1 concentration 500 nM | drug1 concentration 1000 nM
drug2 concentration 5 nM | > 100 | 97.6 | 93.9 | 77.8 | > 100 | > 100 | > 100
drug2 concentration 10 nM | > 100 | > 100 | > 100 | > 100 | > 100 | 89.1 | > 100
drug2 concentration 50 nM | 97 | 96.9 | 91.9 | > 100 | > 100 | 94 | > 100
drug2 concentration 100 nM | > 100 | > 100 | > 100 | > 100 | 93 | 96.1 | > 100
drug2 concentration 500 nM | 99.9 | > 100 | 98.7 | > 100 | > 100 | 87.2 | 98.8
drug2 concentration 1000 nM | > 100 | 70.6 | 96.2 | > 100 | 91.6 | 95.1 | > 100
drug2 concentration 5000 nM | 95 | > 100 | 98.5 | > 100 | > 100 | > 100 | > 100

CN(CCOc1ccc(Cc2sc(O)nc2O)cc1)c1ccccn1 [Rosiglitazone] + c1cc(-c2cnn3cc(-c4ccc(OCCN5CCCCC5)cc4)cnc23)ccn1 [Dorsomorphin]
cell viability [%], MV4-11
Conditions | drug1 concentration 1 nM | drug1 concentration 5 nM | drug1 concentration 10 nM | drug1 concentration 50 nM | drug1 concentration 100 nM | drug1 concentration 500 nM | drug1 concentration 1000 nM
drug2 concentration 5 nM | 96.5 | > 100 | > 100 | 98.4 | > 100 | > 100 | > 100
drug2 concentration 10 nM | > 100 | 97.3 | > 100 | 93.5 | > 100 | 83.4 | > 100
drug2 concentration 50 nM | > 100 | 98.2 | > 100 | > 100 | 84.9 | > 100 | > 100
drug2 concentration 100 nM | 98.3 | 98.1 | 99.6 | > 100 | > 100 | > 100 | 85.3
drug2 concentration 500 nM | 99 | 45.9 | 46.8 | 45.7 | 49 | 13 | 43.8
drug2 concentration 1000 nM | 26.1 | 20.7 | 21.6 | 23.8 | 7.5 | 23.4 | 16.8
drug2 concentration 5000 nM | 2.86 | 4.57 | 4.91 | 7.17 | 6.15 | 6.58 | 5.32

CC(C)(C)c1ccc(S(=O)(=O)NCc2ccc(C(=O)Nc3cccnc3)cc2)cc1 [STF-31]
Conditions | area under dose-response curve
[1] | 0.358
[2] | 0.433
[3] | 0.896
[4] | 0.745
[5] | 0.8
[6] | 0.449
[7] | 0.267
[8] | 0.375
[9] | 0.368
[10] | 0.357
[11] | 0.66
[12] | 0.567
[13] | 0.366
[14] | 0.653
[15] | 0.367

CO[C@H]1C[C@@H]2CC[C@@H](C)[C@@](O)(O2)C(=O)C(=O)N2CCCC[C@H]2C(=O)O[C@H]([C@H](C)C[C@@H]2CC[C@@H](OC(=O)C(C)(CO)CO)[C@H](OC)C2)CC(=O)[C@H](C)/C=C(\C)[C@@H](O)[C@@H](OC)C(=O)[C@H](C)C[C@H](C)/C=C/C=C/C=C/1C [Temsirolimus]
Conditions | area under dose-response curve
[1] | < 0.0301
[2] | < 0.0301
[3] | 0.798
[4] | 0.123
[5] | 0.608
[6] | 0.123
[7] | 0.0628
[8] | 0.584
[9] | < 0.0301
[10] | < 0.0301
[11] | 0.146
[12] | 0.206
[13] | < 0.0301
[14] | 0.142
[15] | < 0.0301

CN1CCN(CCCN2c3ccccc3Sc3ccc(C(F)(F)F)cc32)CC1 [Trifluoperazine]
Conditions | area under dose-response curve
[1] | 0.182
[2] | 0.106
[3] | 0.36
[4] | 0.429
[5] | 0.423
[6] | 0.362
[7] | 0.209
[8] | 0.102
[9] | 0.174
[10] | 0.187
[11] | 0.517
[12] | 0.162
[13] | 0.0812
[14] | 0.294
[15] | 0.108
